This note sets out measurements from article PMC8043927, “Mycelial culture extracts of selected wood-decay mushrooms as a source of skin-protecting factors” (Biotechnology Letters, 2021).

The experiment addresses T1, hyaluronidase.
T1 construct: gene SPAM1; bovine testicular enzyme is the usual preparation
Nature of the experiment: turbidimetric assay with CTAB, […] nm. The following applies: hyaluronic acid substrate, acetate buffer pH 4.5, 37 °C, 45 min. In kind it is biochemical.

With `O=c1c(O)c(-c2ccc(O)c(O)c2)oc2cc(O)cc(O)c12` [quercetin (dihydrate)], the “Inhibition of hyaluronidase activity / Positive control” value came out at 509.79 µg/mL.
